Reference: patent US20190117770A1, “USES OF IMMUNOCONJUGATES TARGETING CD138” (Biotest AG, priority 2011, published 2019)

What was measured:
[1] = literature; cited from earlier work
[2] = tested on: primary mammary tumor of a patient; test: Mammary carcinoma xenograft; format: in vivo, NMRI (nude) mice
[3] = tested on: human derived breast cancer model with CD138 IHC score 2-3; test: Breast cancer model, CD138 IHC score 2-3; format: in vivo, NMRI nude mice; conditions: 10 mg/kg
Source text: The results are shown in terms of the effect on the mean relative tumor volume in the model relative to an intravenous administration of PBS. For the calculation of the median relative tumor volume on day, see FIG. 33.

[4] = tested on: human derived breast cancer model with CD138 IHC score 1-2; test: Breast cancer model, CD138 IHC score 1-2; format: in vivo, NMRI nude mice; conditions: 10 mg/kg
Source text: No difference in the treatment regimens was observed. The results are shown in terms of the effect on the mean relative tumor volume in the model relative to an intravenous administration of PBS. For the calculation of the median relative tumor volume on day, see FIG. 33.

primary pancreatic tumor = test: Example 9 xenograft (FIG. 38); format: in vivo, NMRI (nude) mice; conditions: 10 mg/kg; treatment period and treatment free period
Source text: The results are shown in terms of the effect on the mean relative tumor volume.

RPMI 8226 = test: Synergy determination in cell lines (Chou and Talalay); format: cell-based; conditions: drug in combination with BT062
Method: Combination studies in xenograph mouse models were preceded by studies in cell lines. […] Here, IC50 values for the cytotoxic effects for each drug and each cell line are calculated, and then IC50 ratios for each drug pair. The cells were then exposed to dilution series of either these drug mixtures, or the drugs alone. Experimental data were analyzed using the CompuSyn software (ComboSyn, Inc., Paramus, N.J.). Combination Indexes (CI) for each independent experiment were calculated and reported separately. In the analysis, CI less than 1, equal to 1 and more than 1 indicates synergy, additivity and antagonism, respectively. According to the classification of T. C.

CD138 expression = test: Effect of lenalidomide on CD138 expressing cells in vitro; conditions: different cell lines, 24 h incubation (FIG. 32)
[5] = tested on: MOLP8 multiple myeloma cells; test: MOLP8 xenograft, combination BT062 and VELCADE; format: in vivo, mice
Source text: The ACTIVITY RATING is another measurement for the effects of a combination. This rating is based on the Log10 cell kill
where (T-C) or tumor growth delay, is the median time in days required for the treatment group (T) and the control group (C) tumours, to reach a predetermined size (600 mm^3).

[6] = Clinical trials of other immunoconjugates (literature); format: in vivo, human; conditions: assuming 70 kg and 1.9 m^2 body surface area
[7] = cited from earlier work

Molecule: COc1cc2cc(c1Cl)N(C)C(=O)C[C@H](OC(=O)[C@H](C)N(C)C(=O)CCS)[C@]1(C)O[C@H]1[C@H](C)[C@@H]1C[C@@](O)(NC(=O)O1)[C@H](OC)/C=C/C=C(\C)C2 [DM1, N^2-deacetyl-N^2-(3-mercapto-1-oxopropyl)-maytansine]
- cytotoxicity, fold more cytotoxic than maytansine [1]: 3- to 10 fold

Molecule: COc1cc2cc(c1Cl)N(C)C(=O)C[C@H](OC(=O)[C@H](C)N(C)C(=O)CCC(C)(C)S)[C@]1(C)O[C@H]1[C@H](C)[C@@H]1C[C@@](O)(NC(=O)O1)[C@H](OC)/C=C/C=C(\C)C2 [DM4, N^2′-deacetyl-N^2′-(4-methyl-4-mercapto-1-oxopentyl)-maytansine, reference compound]
- tumor response ([2]; amount corresponding to that in 4 mg BT062): did not result in tumor response

Molecule: CC(=O)O[C@@]12CO[C@@H]1C[C@H](O)[C@@]1(C)C(=O)[C@H](O)C3=C(C)[C@@H](OC(=O)[C@H](O)[C@@H](NC(=O)OC(C)(C)C)c4ccccc4)C[C@@](O)([C@@H](OC(=O)c4ccccc4)[C@H]21)C3(C)C [Docetaxel, reference compound]
- tumor response [3]: response
- tumor response [4]: did not respond
- tumor response (primary pancreatic tumor): complete remission

Molecule: Nc1cccc2c1CN(C1CCC(=O)NC1=O)C2=O (centres unmarked) [Lenalidomide]
- Estimate of synergistic result (RPMI 8226): Synergistic
- CD138 expression (CD138 expression): concentration dependent CD138 decrease

Molecule: CC(=O)O[C@H]1C(=O)[C@@]2(C)[C@H]([C@H](OC(=O)c3ccccc3)[C@]3(O)C[C@H](OC(=O)[C@H](O)[C@@H](NC(=O)c4ccccc4)c4ccccc4)C(C)=C1C3(C)C)[C@]1(OC(C)=O)CO[C@@H]1C[C@@H]2O [Taxol, Paclitaxel, reference compound]
- tumor response ([2]; 10 mg/kg): only a minor tumor growth delay

Molecule: CC(C)C[C@H](NC(=O)[C@H](Cc1ccccc1)NC(=O)c1cnccn1)B(O)O [Velcade, bortezomib, reference compound]
- effect on the tumor volume ([5]; VELCADE treatment alone (FIG. 31)): no effect
- Tumor free survivors day 67 ([5]; Velcade 1 mg/kg): 0/6
- log cell kill ([5]; Velcade 1 mg/kg): 0.0

Molecule: COc1cc2cc(c1Cl)N(C)C(=O)C[C@H](OC(=O)[C@H](C)N(C)C(C)=O)[C@]1(C)O[C@H]1[C@H](C)[C@@H]1C[C@@](O)(NC(=O)O1)[C@H](OC)/C=C/C=C(\C)C2 [maytansine]
- cytotoxicity, fold higher than Vinca alkaloids or taxol [1]: 200-1000 fold

Molecule: SAR3419
- Corresponds to total concentration of [6]: 110 mg
- patients with a response ([7]; 22 patients at the MTD (55 mg/m^2)): 36%
- patients achieving an objective response ([7]; 38 patients at 20 mg/m^2 or higher, weekly, B-cell NHL): 32%
- MTD, single administration every three weeks ([7]; literature): 160 mg/m^2

Molecule: SGN-35
- Corresponds to total concentration of [6]: 84 mg
- Once weekly regimen, dose administered ([7]; literature): Up to 1.2 mg/kg

B1: SGN-75: anti-CD70; MMAF (SEATTLE GENETICS) (conjugate, chains of the INN, looked up)
VH: QVQLVQSGAEVKKPGASVKVSCKASGYTFTNYGMNWVRQAPGQGLKWMGWINTYTGEPTYADAFKGRVTMTRDTSISTAYMELSRLRSDDTAVYYCARDYGDYGMDYWGQGTTVTVSS
VL: DIVMTQSPDSLAVSLGERATINCRASKSVSTSGYSFMHWYQQKPGQPPKLLIYLASNLESGVPDRFSGSGSGTDFTLTISSLQAEDVAVYYCQHSREVPWTFGQGTKVEIK
modifications: MMAF conjugate
- MTD, once weekly regimen ([7]; literature): not been reached)

B2: IMGN242: analog of cantuzumab mertansine, huC242-DM4 (conjugate, chains of the INN, looked up)
VH: QVQLVQSGAEVKKPGETVKISCKASDYTFTYYGMNWVKQAPGQGLKWMGWIDTTTGEPTYAQKFQGRIAFSLETSASTAYLQIKSLKSEDTATYFCARRGPYNWYFDVWGQGTTVTVSS
VL: DIVMTQSPLSVPVTPGEPVSISCRSSKSLLHSNGNTYLYWFLQRPGQSPQLLIYRMSNLVSGVPDRFSGSGSGTAFTLRISRVEAEDVGVYYCLQHLEYPFTFGPGTKLELK
modifications: DM4 maytansinoid conjugate
- subjects experiencing dose-limiting toxicity ([7]; 223 mg/m^2 once every 3 weeks, second cycle): 2 of 6
